In patent US10544167B2, “Compounds as stimuli-responsive probes, methods and applications thereof” (JAWAHARLAL NEHRU CENTRE FOR ADVANCED SCIENTIFIC RESEARCH, priority 2015, dated 2020):

Columns and labels:
H2O2 in HeLa cells [1] = assay: H2O2 detection after genotoxic stress (BrdU/doxorubicin) in HeLa cells, fluorescence plate reader; type: cell-based, Human; conditions: for fold increase in fluorescence compared to control cells: BrdU (100 μM), about 48 hours
Method: (§1) The cells are incubated with QCy-BA (5 μM) for 30 minutes in dark, washed with PBS and analysed to detect QCy-BA dye fluorescence using Infinite M1000 Pro, Tecan, Austria). Wavelengths used for excitation and emission for QCy-BA dye is 400 nm/650 nm. In all ROS measurement assays are done using plate reader and after fluorescence measurements, cells are washed, trypsinized and counted to estimate fluorescence per cell recordings.
To measure ROS generated concomitant to the dose of the DNA damage, HeLa cells are treated with increasing doses (0 to 200 μM) of 5-bromo-2′-deoxyuridine (BrdU). BrdU is a thymidine analog, which gets directly incorporated into DNA and triggers DNA damage response. From previous studies in the art it is known that 48 hours of treatment with BrdU (100 μM) or another DNA damaging agent, doxorubicin at a concentration of 0.1 μM can lead to the induction of cellular senescence.

[2] = Detection limit of H2O2 in presence of QCy-BA (concentration-dependent fluorescence, microplate reader); conditions: QCy-BA 5 μM, PBS buffer, excitation 400 nm, 3σ/slope
Method: Concentration dependent studies are performed using microplate reader. In the well-plates, first QCy-BA (5 μM) in buffer solution is taken, then increasing concentration of H2O2 from 0 to 100 μM is added. Upon excitation at 400 nm, the emission at […] as function time after addition of H2O2 is collected. The fluorescence intensity at […] is plotted as a function of concentration of hydrogen peroxide and each experiment is done in triplicates.
Further, concentration-dependent fluorescence study on slicing of the phenyl boronic acid functionality of QCy-BA (5 μM) in response to sequential addition of H2O2 (5 to 100 μM) is performed. The fluorescence intensity of QCy-BA at 565 nm is decreased in response to added H2O2 in the concentration range of 5 to 50 μM and subsequently reached saturation at 100 μM. A linear relationship (R^2=0.9877) is observed with increasing concentration of H2O2 in the concentration range of 5-50 JAM. Based on 3a/slope the limit of detection (LOD) of H2O2, using the decrease in fluorescence of QCy-BA at 565 nm, is found to be 5.3 μM (FIG. 7). H2O2 is one of the many ROS present in the biological system and it is necessary to test the probe QCy-BA against all of them to assess the selectivity and specificity. […]

[3] = Fluorescence response of QCy-BA to various reactive oxygen species (selectivity); conditions: QCy-BA 5 μM; superoxide, hydroxyl radical, tert-butoxy radical, hypochlorite, 100 μM each
Method: Further, concentration-dependent fluorescence study on slicing of the phenyl boronic acid functionality of QCy-BA (5 μM) in response to sequential addition of H2O2 (5 to 100 μM) is performed. The fluorescence intensity of QCy-BA at 565 nm is decreased in response to added H2O2 in the concentration range of 5 to 50 μM and subsequently reached saturation at 100 μM. A linear relationship (R^2=0.9877) is observed with increasing concentration of H2O2 in the concentration range of 5-50 JAM. Based on 3a/slope the limit of detection (LOD) of H2O2, using the decrease in fluorescence of QCy-BA at 565 nm, is found to be 5.3 μM (FIG. 7). H2O2 is one of the many ROS present in the biological system and it is necessary to test the probe QCy-BA against all of them to assess the selectivity and specificity. Therefore, the response of QCy-BA towards H2O2 (100 μM) in the presence of other ROS (100 μM) is examined, including tertbutyl hydroperoxide (TBHP), superoxide (O2^−), hydroxyl radical (HO.), tert-butoxy radical (^tBuO.) and hypochlorite (OCl^−).

[4] = Time-dependent fluorescence study of release kinetics of QCy-BA to QCy-DT in response to H2O2 in presence of Drew-AT; conditions: QCy-BA 2 μM, Drew-AT 2 μM
Method: The time-dependent fluorescence study is carried out to evaluate the release kinetics of QCy-BA (2 μM) to QCy-DT in response to H2O2 (100 μM) stimulus, in presence of Drew-AT duplex. The change in fluorescence intensities at […] and 650 nm corresponding to emission maxima (Emax) of QCy-BA and QCy-DT in presence of Drew-AT is monitored.
The calculation of kinetics parameter using pseudo-first-order conditions for conversion of QCy-BA (2 μM) to QCy-DT in the presence of H2O2 (1 mM) and Drew-AT (2 μM) gave the rate constant of kobs=1.0×10^−3 s^−1 (FIG. 10).

HeLa cells = assay: Cytotoxicity on HeLa cells (MTT assay); type: cell-based, Human
Method: MTT [(3-(4,5-dimethylthiozol-2yl)-2,5-diphenyltetrazolium bromide] assay is carried out with probe QCy-BA on HeLa cells to determine the cytotoxicity effect. In a tissue cultured 96-well plate, 10,000 cells per well are plated and incubated for 24 h, for cells to attach. After completion of 24 h incubation, the attached and healthy cells are treated with various concentrations (25 μM, 12.5 μM, 6.25 μM, 3.125 μM and 0 μM) of probe QCy-BA and further incubated for 24 h. All the treatments are carried out in triplicates. The required concentrations of QCy-BA are made from stock solution in 0.2% DMEM. Stock solution of probe QCy-BA (1 mg/mL) is made in water. Four hours before stipulated time of experiment, MTT-solution (5 mg/mL of 20 μL) is added in each well and incubated to form formazan crystals. The culture medium is completely removed by 1 mL pipette and 200 μL of DMSO is added to dissolve formazan crystals. The purple colored formazan is estimated by determining absorbance at 590 nm with the help of spectrophotometer (Bio-RAD model 1680, Microplate reader). The results are shown in bar graphs (concentration of QCy-BA vs % cell viability).
In order to check the cytotoxicity of probe QCy-BA cell viability assay is performed in HeLa cells. Upon incubation with QCy-BA, more than 80% of the cells are viable even at 25 μM concentration after about 24 hours (FIG. 15).

H2O2 in HeLa cells [5] = assay: Confocal fluorescence imaging of HeLa cells treated with exogenous H2O2; type: cell-based, Human; conditions: QCy-BA 5 μM 30 minutes, then H2O2 100 μM about 15 minutes
Method: An Immunofluorescence studies are carried out on HeLa cells to validate exogenous and endogenous detection of H2O2 by QCy-BA. The HeLa cells (10,000 cells) are grown on cover slips. These cells are treated with 5 μM concentration of QCy-BA for 30 minutes. The cells are washed with DPBS for several times to remove the excesses of QCy-BA. The cells are treated with H2O2 (100 μM) for 30 minutes. These samples are subjected to confocal microscopy for immunefluorescence images.
Remarkable selectivity of QCy-BA towards H2O2 and its detection through DNA-assisted switch-on NIR fluorescence led to evaluation of the uptake and application of the probe to detect H2O2 in cells. For this purpose, confocal fluorescence imaging of HeLa cells treated with H2O2 (exogenous) is carried out. First, the HeLa cells are incubated with QCy-BA (5 μM) for about 30 minutes and imaged under a confocal microscope. […] HeLa cells containing QCy-BA are then treated with H2O2 (100 μM) for about 15 minutes, after which the cells are again scanned under a confocal microscope.

[6] = Time-dependent NMR analysis of H2O2 triggered slicing of phenyl boronic acid of QCy-BA; conditions: QCy-BA 2 mM in D2O, H2O2 10 mM, 1H NMR
Method: In a preliminary study, time-dependent NMR spectroscopy analysis of QCy-BA is carried out in the presence of H2O2 to assess the stimuli-responsive slicing of phenyl boronic acid functionality (FIG. 1(a)).
The chemical shifts of O—CH2, aromatic region of QCy-BA and appearance of possible new peaks for p-quinonemethide (sliced byproduct corresponding to phenyl boronic acid functionality) upon sequential addition of H2O2 is monitored. […] The peaks at 5.20 ppm and aromatic region 6.5-7.0 ppm correspond to the newly-formed exocyclic C—Hb protons of p-quinone-methide and QCy-DT moieties, respectively. After about 2 hours, a single peak at 5.20 ppm and prominent new peaks at 6.5-7.0 ppm are observed, indicating the complete conversion of QCy-BA to QCy-DT and p-quinonemethide (FIG. 1(b)). This study confirmed the H2O2 stimulus-triggered slicing of phenyl boronic acid functionality of QCy-BA to release QCy-DT, a DNA minor groove binding probe. It is observed that the color of the solution changes from yellow to brown after the addition of H2O2 to QCy-BA, a naked eye detection of the formation of p-quinone-methide and QCy-DT (FIG. 1(c)).

H2O2 in MRC5 cells = assay: H2O2 detection after genotoxic stress (BrdU/doxorubicin) in primary MRC5 cells, fluorescence plate reader; type: cell-based, human; conditions: MRC5, various doses of BrdU and doxorubicin 0.1 μM, 72 h; probe 5 μM
Method: as §1
Further, similar experiments are performed in primary MRC5 cells, which are human lung primary fibroblasts. To induce DNA damage, MRC5 cells are similarly treated with various doses of BrdU and doxorubicin (0.1 μM) for 72 h. […] Therefore, above results reveal that QCy-BA is a versatile probe to monitor the elevated levels of H2O2 in both primary and cancer cells in senescence state.

H2O2 in HeLa cells [7] = assay: Exogenous and endogenous detection of H2O2 in HeLa cells by flow cytometry (FACS); type: cell-based, Human; conditions: probe about 5 μM, about 30 minutes, absence of NAC
Method: In each well, […] cells are plated in 12-well tissue culture plates and incubated for 24 hours. These cells are serum deprived for 1 h. In addition, the serum deprived cells of 6-well are treated with N-acetyl-L-cysteine (NAC) (8 mM) solution and incubated for 1 hour and cells are treated with probe QCy-BA (5 μM) and incubated for 30 minutes. After 30 minutes incubation, the cells are washed with DPBS (Dulbecco's Phosphate buffer saline) to remove the excesses of QCy-BA. These cells are harvested after trypsinization. Exogenously, H2O2 (100 μM) is added to QCy-BA and NAC+QCy-BA treated cells and incubated for 15 min. These samples are subjected to FACS analysis.
NMR, photophysical study. […] Next. QCy-BA for probing cellular (physiologically generated) H2O2 levels in live cells is employed. HeLa cells are incubated with QCy-BA (about 5 μM) for about 30 minutes in the absence and presence of N-acetyl-L-cysteine (NAC), a well-known H2O2 scavenger. […] Thus, probe QCy-BA is also capable of detecting the cellular H2O2 levels in live cells.

[8] = tested on: H2O2 produced by EGF/Nox pathway in HeLa cells; assay: EGF produced H2O2 detection in HeLa cells by flow cytometry (FACS); type: cell-based, Human; conditions: EGF 500 ng/mL about 40 minutes, QCy-BA 5 μM 30 minutes
Method: To determine the EGF produced ROS in cells by QCy-BA. In a 12-well plate, […] HeLa cells are plated in each well and incubated for 24 hour. These cells are serum deprived for 1 h. Cells are incubated with EGF (500 ng/mL) for 40 minutes and further treated with NAC (8 mM) for 1 hour. Then cells are treated with QCy-BA (5 μM) for 30 minutes. After 30 minutes incubation of cells with QCy-BA, cells are washed with DPBS (Dulbecco's Phosphate Buffer Saline) to remove the excesses of QCy-BA. These cells are harvested after trypsinization. The samples are subjected to FACS.
Further, the study is extended to visualize the in situ H2O2 generation by a known signaling pathway in live cells. Well-known epidermal growth factor (EGF) binding to epidermal growth factor receptor (EGFR) signaling pathway is selected, which stimulates the production of H2O2 in cells by activating the NOX/PI3K pathways. In this experiment, live HeLa cells are incubated with the epidermal growth factor (EGF) (500 ng/mL) for about 40 minutes under physiological conditions (37° C., pH=7.4).

SMILES | fold change of fluorescence (summary for DCFDA) (H2O2 in HeLa cells [1]; BrdU 100 μM and doxorubicin 0.1 μM, 48 h) | fold increase in fluorescence compared to control cells (H2O2 in HeLa cells [1]) [fold] | limit of detection (LOD) of H2O2, using the decrease in fluorescence of QCy-BA at 565 nm [2] [µM] | effect of other ROS on the probe response (fluorescence at 565 nm) [3] | time to saturation of emission intensity at 650 nm ([4]; H2O2 100 μM, excitation 564 nm) [h] | rate constant kobs for conversion of QCy-BA to QCy-DT ([4]; pseudo-first-order, H2O2 1 mM, emission 650 nm) [s⁻¹] | viable cells (HeLa cells; 25 μM, about 24 hours) | toxicity (in words) (HeLa cells; standard working concentration about 5 μM, 24 hours) | fluorescence in HeLa cells after H2O2 (H2O2 in HeLa cells [5]) | time to complete conversion of QCy-BA to QCy-DT and p-quinonemethide [6] | fluorescence compared to control cells (H2O2 in MRC5 cells) | mean fluorescence intensity of PerCP compared to control cells (H2O2 in HeLa cells [7]) | fluorescence intensity in the PerCP region after EGF stimulation [8]
CC(=O)Oc1cc2c(cc1Cl)C(c1ccccc1C(=O)O)c1cc(Cl)c(OC(C)=O)cc1O2 [DCFDA, 2′,7′-dichlorofluorescin diacetate] | 3-4 fold | 3 | – | – | – | – | – | – | – | – | – | – | –
C[n+]1c(/C=C/c2ccc(OCc3ccc(B(O)O)cc3)c(/C=C/c3sc4ccccc4[n+]3C)c2)sc2ccccc21.[I-].[I-] [QCy-BA, 4-((N, N-dimethyl, 2,4-bis((E)-2-(benzo[d]thiazol-2-ylinium)vinyl)phenoxy)methyl)phenylboronic acid] | – | ~10 | 5.3 | very minimal or no effect | ≥ 4 | 0.001 | more than 80% | non-toxicity | strong fluorescence in the red channel with maximum localization in the cell nucleus | about 2 hours | increase in fluorescence compared to control cells in a dose-dependent manner | increase in mean fluorescence intensity of PerCP | strong fluorescence intensity
